pEC50, pIC50: −log10 of the molar value. Bounds are passed on as bounds.

This passage reports EC50 and IC50 results from patent US10336762B2 (priority 2017, dated 2019).

One experiment relates to TNFα. Put plainly: cells. In kind it is cell-based, human. The settings on record: Homo sapiens, Monocyte, LPS-stimulated human monocytes, TNFα content; read-out: EC50 TNF.
Another experiment has as its target IRAK4 enzyme (Homo sapiens (Human), UniProt Q9NWZ3). Put plainly: biochemical. In kind it is biochemical. The conditions noted are these: IRAK4 enzyme, TR-FRET (HTRF), 500 μM ATP.

IRAK4 enzyme, sequence (Q9NWZ3 whole entry): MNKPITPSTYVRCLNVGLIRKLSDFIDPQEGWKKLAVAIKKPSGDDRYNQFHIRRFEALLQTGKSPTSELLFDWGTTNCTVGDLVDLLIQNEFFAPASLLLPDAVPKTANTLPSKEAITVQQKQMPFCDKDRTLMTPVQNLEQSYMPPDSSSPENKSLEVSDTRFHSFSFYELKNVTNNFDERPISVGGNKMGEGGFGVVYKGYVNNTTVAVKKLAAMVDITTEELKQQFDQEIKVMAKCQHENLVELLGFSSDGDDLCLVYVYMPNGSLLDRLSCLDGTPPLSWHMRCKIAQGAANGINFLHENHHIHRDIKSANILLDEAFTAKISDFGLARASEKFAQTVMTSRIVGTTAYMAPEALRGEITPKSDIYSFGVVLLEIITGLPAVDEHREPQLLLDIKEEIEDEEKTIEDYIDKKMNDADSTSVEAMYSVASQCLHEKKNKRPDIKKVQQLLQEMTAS
Method for TNFα: IRAK4 Monocyte TNFα Cell Based Assay Procedure:
The cell suspension was then plated at a density of 5,000 cells/well onto black 384 well Greiner clear bottom plates. Plates were pre-spotted with test compounds and serially diluted in DMSO where 200 nL/well were delivered using the Echo 550 acoustic liquid dispenser (Labcyte®) for a final DMSO concentration of 0.5%. Plated cells were treated with compound for 1 hour at 37° C. Cells were then stimulated with 50 pg/ml of LPS (Sigma) excluding outside columns of plate used for unstimulated cell control wells. Cells were incubated for an additional 4 hours at 37° C. Cells were then spun out of the media and 5 μl of sample were taken and analyzed for total TNFα content using the TR-FRET Human TNFα detection system (CisBio). This system utilizes two labeled antibodies (cryptate and XL665) that bind to two different epitopes of the TNFα molecule and produce FRET signal proportional to the concentration of TNFα in the sample. Detection antibodies are mixed 50:50 and 5 μL were dispensed into each well. Plates were covered with clear seals and incubated at room temp overnight. […] Percent of control was calculated as follows: % Control=100×(RatioSample−Ratio0% stimulation)/(Ratio100% Stimulation−Ratio0% Stimulation) where unstimulated cells (0% stimulation) were the negative control and stimulated cells (100% stimulation) were used as the positive control.

On to `COC(=O)N[C@H]1C[C@@H](CNC(=O)c2cnc(-c3ccc4cc(C#N)cnn34)cc2NC23CCC(O)(CC2)CC3)C1` [Example 731, methyl ((1s,3s)-3-((6-(3-cyanopyrrolo[1,2-b]pyridazin-7-yl)-4-((4-hydroxybicyclo[2.2.2]octan-1-yl)amino)nicotin-amido)methyl)cyclobutyl) carbamate], for which the pEC50 in the experiment with TNFα was 7.23. Besides, the pIC50 against IRAK4 enzyme is more than 9.00.
In the same order, the values of `N#Cc1cnn2c(-c3cc(NC45CCC(O)(CC4)CC5)c(C(=O)NC[C@H]4C[C@@H](NC(=O)C5CC5)C4)cn3)ccc2c1` [Example 732, 6-(3-cyanopyrrolo[1,2-b]pyridazin-7-yl)-N-(((1s,3s)-3-(cyclopropane-carboxamido)cyclobutyl)methyl)-4-((4-hydroxy-bicyclo[2.2.2]octan-1-yl)amino)nicotinamide] are 7.05 and 9.00.
For the compound `COC(=O)N[C@H]1C[C@H](CNC(=O)c2cnc(-c3ccc4cc(C#N)cnn34)cc2NC23CCC(O)(CC2)CC3)C1` [Example 733, methyl ((1r,3r)-3-((6-(3-cyanopyrrolo[1,2-b]pyridazin-7-yl)-4-((4-hydroxybicyclo[2.2.2]octan-1-yl)amino)nicotin-amido)methyl)cyclobutyl) carbamate], in the experiment with TNFα, the pEC50 was 6.61. On IRAK4 enzyme, this compound showed a pIC50 of 8.70.
On to `CN(C)C(=O)OC[C@H]1C[C@H](Nc2cc(-c3ccc4cc(C#N)cnn34)ncc2C(=O)NC[C@@H](F)C(C)(C)O)C1` [Example 734, ((1R,3r)-3-((2-(3-cyanopyrrolo[1,2-b]pyridazin-7-yl)-5-(((R)-2-fluoro-3-hydroxy-3-methylbutyl)carbamoyl)pyridin-4-yl)amino)cyclo-butyl)methyldimethyl-carbamate], for which the pEC50 in the experiment with TNFα was 7.54. In addition, the pIC50 against IRAK4 enzyme was more than 9.00.
Taken in the same sequence, the figures for `CC(C)(O)[C@H](F)CNC(=O)c1cnc(-c2ccc3cc(C#N)cnn23)cc1N[C@H]1C[C@H](COC(=O)NC2CC2)C1` [Example 735, ((1R,3r)-3-((2-(3-cyano-pyrrolo[1,2-b]pyridazin-7-yl)-5-(((R)-2-fluoro-3-hydroxy-3-methylbutyl)carbamoyl)pyridin-4-yl)amino)cyclobutyl)methyl cyclopropylcarbamate] were 7.00 and 9.00.
Taken in the same sequence, the figures for `CC(C)(O)[C@H](F)CNC(=O)c1cnc(-c2ccc3cc(C#N)cnn23)cc1N[C@H]1C[C@H](COC(=O)NCC(F)F)C1` [Example 736, ((1R,3r)-3-((2-(3-cyano-pyrrolo[1,2-b]pyridazin-7-yl)-5-(((R)-2-fluoro-3-hydroxy-3-methylbutyl)carbamoyl)pyridin-4-yl)amino)cyclobutyl) methyl (2,2-difluoro-ethyl)carbamate] were 7.32 and more than 9.00.
Taken in the same sequence, the figures for `CC(C)(O)[C@H](F)CNC(=O)c1cnc(-c2ccc3cc(C#N)cnn23)cc1N[C@H]1C[C@H](COC(=O)N2CCC(F)(F)C2)C1` [Example 737, ((1R,3r)-3-((2-(3-cyano-pyrrolo[1,2-b]pyridazin-7-yl)-5-(((R)-2-fluoro-3-hydroxy-3-methylbutyl)carbamoyl)pyridin-4-yl)amino)cyclobutyl) methyl 3,3-difluoro-pyrrolidine-1-carboxylate] were 7.59 and more than 9.00.
Turning to `CC(C)(O)[C@H](F)CNC(=O)c1cnc(-c2ccc3cc(C#N)cnn23)cc1N[C@H]1C[C@H](COC(=O)N2CC(F)(F)C2)C1` [Example 738, ((1R,3r)-3-((2-(3-cyano-pyrrolo[1,2-b]pyridazin-7-yl)-5-(((R)-2-fluoro-3-hydroxy-3-methylbutyl)carbamoyl)pyridin-4-yl)amino)cyclobutyl) methyl 3,3-difluoro-azetidine-1-carboxylate], in the experiment with TNFα, the pEC50 is 7.54. The pIC50 against IRAK4 enzyme was more than 9.00.
For `N#Cc1cnn2c(-c3cc(NC45CCC(O)(CC4)CC5)c(C(=O)NCC4(F)CCC4)cn3)ccc2c1` [Example 739, 6-(3-cyanopyrrolo[1,2-b]pyridazin-7-yl)-N-((1-fluorocyclobutyl)methyl)-4-((4-hydroxybicyclo[2.2.2]octan-1-yl)amino) nicotinamide], the pEC50 in the experiment with TNFα is 6.56. Also, the pIC50 on IRAK4 enzyme is 8.40.
In the same order, the values of `CC(C)(F)CNC(=O)c1cnc(-c2ccc3cc(C#N)cnn23)cc1NC12CCC(O)(CC1)CC2` [Example 740, 6-(3-cyanopyrrolo[1,2-b]pyridazin-7-yl)-N-(2-fluoro-2-methylpropyl)-4-((4-hydroxybicyclo[2.2.2]octan-1-yl)amino) nicotinamide] are 6.58 and 8.40.
For `COC(=O)N1CC[C@H](CNC(=O)c2cnc(-c3ccc4cc(C#N)cnn34)cc2NC23CCC(O)(CC2)CC3)C1` [Example 741, (R)-methyl 3-((6-(3-cyano-pyrrolo[1,2-b]pyridazin-7-yl)-4-((4-hydroxybicyclo[2.2.2]octan-1-yl)amino)nicotin-amido)methyl)pyrrolidine-1-carboxylate], the pEC50 with TNFα was 6.91. The pIC50 at IRAK4 enzyme was more than 9.00.
For the compound `COC(=O)N1CC[C@@H](CNC(=O)c2cnc(-c3ccc4cc(C#N)cnn34)cc2NC23CCC(O)(CC2)CC3)C1` [Example 742, (S)-methyl 3-((6-(3-cyano-pyrrolo[1,2-b]pyridazin-7-yl)-4-((4-hydroxy-bicyclo[2.2.2]octan-1-yl)amino)nicotinamido)methyl)pyrrolidine-1-carboxylate], the pEC50 in the experiment with TNFα is 6.90. On IRAK4 enzyme, this compound gave a pIC50 of 9.00.
Taken in the same sequence, the figures for `CNC(=O)OC[C@H](F)CNC(=O)c1cnc(-c2ccc3cc(C#N)cnn23)cc1NC12CCC(O)(CC1)CC2` [Example 743, (R)-3-(6-(3-cyano-pyrrolo[1,2-b]pyridazin-7-yl)-4-((4-hydroxy-bicyclo[2.2.2]octan-1-yl)amino)nicotin-amido)-2-fluoropropyl methylcarbamate] were 7.27 and more than 9.00.
In the same order, the values of `COC(=O)N1CC(CNC(=O)c2cnc(-c3ccc4cc(C#N)cnn34)cc2NC23CCC(O)(CC2)CC3)C1` [Example 744, methyl 3-((6-(3-cyano-pyrrolo[1,2-b]pyridazin-7-yl)-4-((4-hydroxy-bicyclo[2.2.2]octan-1-yl)amino)nicotinamido)methyl)azetidine-1-carboxylate] are 6.80 and 8.70.
In the same order, the values of `N#Cc1cnn2c(-c3cc(NC45CCC(O)(CC4)CC5)c(C(=O)NCCO)cn3)ccc2c1` [Example 745, 6-(3-cyanopyrrolo[1,2-b]pyridazin-7-yl)-4-((4-hydroxybicyclo[2.2.2]octan-1-yl)amino)-N-(2-hydroxyethyl)nicotinamide] are 7.06 and more than 9.00.
On to `COC(=O)NCCNC(=O)c1cnc(-c2ccc3cc(C#N)cnn23)cc1NC12CCC(O)(CC1)CC2` [Example 746, methyl (2-(6-(3-cyano-pyrrolo[1,2-b]pyridazin-7-yl)-4-((4-hydroxy-bicyclo[2.2.2]octan-1-yl)amino)nicotinamido)ethyl)carbamate], for which, in the experiment on TNFα, the pEC50 is 6.98. Moreover, the negative logarithm of the IC50 (pIC50) on IRAK4 enzyme was 9.00.
In the same order, the values of `CNC(=O)O[C@@H]1CCC[C@H](Nc2cc(-c3ccc4cc(C#N)cnn34)ncc2C(=O)NC[C@@H](F)C(C)(C)O)C1` [Example 748, (1R,3S)-3-((2-(3-cyano-pyrrolo[1,2-b]pyridazin-7-yl)-5-(((R)-2-fluoro-3-hydroxy-3-methylbutyl)carbamoyl)pyridin-4-yl)amino)cyclohexyl methylcarbamate] are 7.42 and more than 9.00.
Taken in the same sequence, the figures for `CC(C)(O)[C@H](F)CNC(=O)c1cnc(-c2ccc3cc(C#N)cnn23)cc1NC1CC2(C1)CC(F)(F)C2` [Example 749, (R)-6-(3-cyanopyrrolo[1,2-b]pyridazin-7-yl)-4-((6,6-difluorospiro[3.3]heptan-2-yl)amino)-N-(2-fluoro-3-hydroxy-3-methylbutyl) nicotinamide] were 7.28 and more than 9.00.
Taken in the same sequence, the figures for `COC(=O)N[C@H]1CC[C@H](Nc2cc(-c3ccc4cc(C#N)cnn34)ncc2C(=O)NC[C@@H](F)C(C)(C)O)C1` [Example 750, methyl ((1S,3S)-3-((2-(3-cyanopyrrolo[1,2-b]pyridazin-7-yl)-5-(((R)-2-fluoro-3-hydroxy-3-methylbutyl)carbamoyl)pyridin-4-yl)amino)cyclopentyl) carbamate] were 6.70 and 9.00.
As to `COC(=O)N1CC[C@H](Nc2cc(-c3ccc4cc(C#N)cnn34)ncc2C(=O)NC[C@@H](F)C(C)(C)O)C1` [Example 751, (S)-methyl 3-((2-(3-cyano-pyrrolo[1,2-b]pyridazin-7-yl)-5-(((R)-2-fluoro-3-hydroxy-3-methylbutyl)carbamoyl)pyridin-4-yl)amino)pyrrolidine-1-carboxylate], the pEC50 in the experiment on TNFα is 6.48. Besides, at IRAK4 enzyme, the pIC50 was 8.40.
In the same order, the values of `COC(=O)N1CC[C@@H](Nc2cc(-c3ccc4cc(C#N)cnn34)ncc2C(=O)NC[C@@H](F)C(C)(C)O)C1` [Example 752, (R)-methyl 3-((2-(3-cyano-pyrrolo[1,2-b]pyridazin-7-yl)-5-(((R)-2-fluoro-3-hydroxy-3-methylbutyl)carbamoyl)pyridin-4-yl)amino)pyrrolidine-1-carboxylate] are 7.10 and more than 9.00.
In the same order, the values of `CC(C)(O)CNC(=O)c1cnc(-c2ccc3cc(C#N)cnn23)cc1NC12CCC(O)(CC1)CC2` [Example 753, 6-(3-cyanopyrrolo[1,2-b]pyridazin-7-yl)-N-(2-hydroxy-2-methylpropyl)-4-((4-hydroxybicyclo[2.2.2]octan-1-yl)amino) nicotinamide] are 6.65 and 8.15.
On to `COC(=O)NC1CC2(C1)CC(Nc1cc(-c3ccc4cc(C#N)cnn34)ncc1C(=O)NC[C@@H](F)C(C)(C)O)C2` (stereo partly drawn) [Example 754, (R)-methyl (6-((2-(3-cyanopyrrolo[1,2-b]pyridazin-7-yl)-5-((2-fluoro-3-hydroxy-3-methylbutyl)carbamoyl)pyridin-4-yl)amino)spiro[3.3]heptan-2-yl)carbamate], for which the pEC50 in the experiment with TNFα was 7.70. For the same compound, the pIC50 at IRAK4 enzyme is more than 9.00.
